Here are results for 29 compounds from EP0511845B1, “Pesticidal 1-aryl-5-(substituted alkylideneimino)-pyrazoles” (AVENTIS CROPSCIENCE S.A., priority 1991, dated 1992).

What all share (type): in vivo
The test system of test [1] is Heliothis virescens. As to the kind of experiment: Tobacco budworm - contact evaluation (topical application). The note with it: topical or contact tests; application dose of 63 µg/g body weight. As for the experimental part: For tobacco budworm contact tests, a stock solution was prepared by dissolving the compound in acetone and then further diluted to provide the required serial dilution concentrations.
Tobacco budworm - contact evaluation: The following topical application method provides an assessment of contact toxicity of a compound to tobacco budworm larvae The test compound solution at sequential two-fold dilution concentrations from 10 down to 0.16 µg/µl was applied by a microinjector in repli cated 1 µl portions to the dorsum of approximately 20 mg tobacco budworm larvae. This is equivalent to applied doses of 500 down to 8 µg/g body weight. An acetone treated control, without any test compounds, as also applied. A treated control with a commercial technical compound, cypermethrin or thiodicarb, also in acetone was used as a standard. The treated larvae were placed, individually, in separate plastic petri dishes containing an untreated cotton leaf and a moist dental wick. The treated larvae were maintained at about 27°C and 50% relative humidity. The percent mortality was rated 1 and 4 days after treatment.

The test system of test [2] is Spodoptera eridania. Put plainly: Southern armyworm on sorghum - systemic evaluation (soil drench). The note with it: systemic via root uptake; for control of southern armyworm after six days on sorghum: 20 ppm soil concentration dose (and subsequent dilutions); for control of southern armyworm at thirteen days (sorghum): on sorghum. As for the experimental part: (§1) Cotton aphid and southern armyworm (on cotton) and greenbug and southern armyworm (on sorghum) - systemic evaluation: A stock solution or suspension was prepared to deliver 5 ml of a 20 ppm soil concentration dose (and subsequent dilutions) as a drench to 6 cm pots containing cotton and sorghum plants. The cotton plants were previously infested with cotton aphids about two days before treatment and greenbug one day before treatment. After holding the plants about three days, the plants were rated for aphid activity. Again at six days, the plants were rated for aphid activity and the cotton aphids and greenbugs were counted and mortality was assessed. Portions of the cotton and sorghum foliage were excised, placed in separate plastic containers, and infested with second instar larvae of southern armyworms. The potted plants were dipped in sulfotepp to kill the remaining aphids and returned to the greenhouse for regrowth. Thirteen days after treatment the remaining foliage was excised and fed to southern armyworm. Mortality was assessed six days after infestation.

The subject of test [3] is Schizaphis graminum. Put plainly: Greenbug on sorghum - systemic evaluation (soil drench). The note with it: systemic via root uptake, soil drench at soil concentrations of the protocols (10.0 or 20 ppm). As for the experimental part:
(§2) For southern root-knot nematod and systemic tests for southern armyworm, cotton aphid, tobacco budworm and greenbug, a stock solution or suspension was prepared by adding 15 mg of the test compound to 250 mg of dimethylformamide, 1250 mg of acetone and 3 mg of the emulsifier blend referenced above. Water was then added to provide a test compound concentration of 150 ppm. When necessary, sonication was provided to insure complete dispersion. Cotton aphid and tobacco budworm (on cotton) and greenbug and tobacco budworm (on sorghum) - systemic evaluation: A 7.0 ml aliquot of the 150 ppm nematode test solution was applied to deliver the equivalent of 10.0 ppm soil concentration dose as a drench to 6 cm pots containing cotton and sorghum plants. The cotton plants were previously infested with cotton aphids about two days before treatment and greenbug one day before treatment. After holding the plants about three days, the plants were rated for aphid activity. Again at six days, the plants were rated for aphid activity and the cotton aphids and greenbugs were counted and mortality was assessed. Portions of the cotton and sorghum foliage were excised, placed in separate plastic containers, and infested with second instar larvae of tobacco budworm. The potted plants were dipped in sulfotepp to kill the remaining aphids and returned to the greenhouse for regrowth. Thirteen days after treatment, the remaining foliage was excised and fed to tobacco budworms. Mortality was assessed six days after infestation. Cotton aphid and southern armyworm (on cotton) and greenbug and southern armyworm (on sorghum) - systemic evaluation: A stock solution or suspension was prepared to deliver 5 ml of a 20 ppm soil concentration dose (and subsequent dilutions) as a drench to 6 cm pots containing cotton and sorghum plants. The cotton plants were previously infested with cotton aphids about two days before treatment and greenbug one day before treatment. After holding the plants about three days, the plants were rated for aphid activity. Again at six days, the plants were rated for aphid activity and the cotton aphids and greenbugs were counted and mortality was assessed. Portions of the cotton and sorghum foliage were excised, placed in separate plastic containers, and infested with second instar larvae of southern armyworms. The potted plants were dipped in sulfotepp to kill the remaining aphids and returned to the greenhouse for regrowth. Thirteen days after treatment the remaining foliage was excised and fed to southern armyworm. Mortality was assessed six days after infestation.

Test [4] deals with Spodoptera eridania. As to the kind of experiment: Southern armyworm on cotton - systemic evaluation (soil drench). The note with it: systemic via root uptake; for control of southern armyworm at six days on cotton: 20 ppm soil concentration dose (and subsequent dilutions); for control of southern armyworm at thirteen days: plant not repeated, follows the cotton clause. As for the experimental part:
as §1

In test [5] the test system is Aphis gossypii. Put plainly: Cotton aphid on cotton - systemic evaluation (soil drench). The note with it: systemic via root uptake, soil drench at soil concentrations of the protocols (10.0 or 20 ppm). As for the experimental part: as §2
Test [6] deals with Heliothis virescens. Put plainly: Tobacco budworm on sorghum - systemic evaluation (soil drench). The note with it: systemic via root uptake, 10.0 ppm soil concentration. As for the experimental part:
For southern root-knot nematod and systemic tests for southern armyworm, cotton aphid, tobacco budworm and greenbug, a stock solution or suspension was prepared by adding 15 mg of the test compound to 250 mg of dimethylformamide, 1250 mg of acetone and 3 mg of the emulsifier blend referenced above. Water was then added to provide a test compound concentration of 150 ppm. When necessary, sonication was provided to insure complete dispersion. Cotton aphid and tobacco budworm (on cotton) and greenbug and tobacco budworm (on sorghum) - systemic evaluation: A 7.0 ml aliquot of the 150 ppm nematode test solution was applied to deliver the equivalent of 10.0 ppm soil concentration dose as a drench to 6 cm pots containing cotton and sorghum plants. The cotton plants were previously infested with cotton aphids about two days before treatment and greenbug one day before treatment. After holding the plants about three days, the plants were rated for aphid activity. Again at six days, the plants were rated for aphid activity and the cotton aphids and greenbugs were counted and mortality was assessed. Portions of the cotton and sorghum foliage were excised, placed in separate plastic containers, and infested with second instar larvae of tobacco budworm. The potted plants were dipped in sulfotepp to kill the remaining aphids and returned to the greenhouse for regrowth. Thirteen days after treatment, the remaining foliage was excised and fed to tobacco budworms. Mortality was assessed six days after infestation.

On to `N#Cc1cccc(C=Nc2c(SC(F)(F)F)c(C#N)nn2-c2c(Cl)cc(C(F)(F)F)cc2Cl)c1` [compound 116], for which the “control of tobacco budworm (TBW)” value in test [1] is listed as 50-100%.
`COc1cc(O)c(C=Nc2c(S(=O)(=O)C(F)(F)F)c(C#N)nn2-c2c(Cl)cc(C(F)(F)F)cc2Cl)c(OC)c1` [compound 72]: in test [2], the “control of southern armyworm after six days on sorghum” value was 30-100%.
On to `COc1ccc(C=Nc2c(SC(F)(F)F)c(C#N)nn2-c2c(Cl)cc(C(F)(F)F)cc2Cl)cc1` [compound 21], for which the “control of greenbug after six days on sorghum” value (“control of greenbug” below) in test [3] was 30-100%.
As to `COc1cc(C=Nc2c(SC(F)(F)F)c(C#N)nn2-c2c(Cl)cc(C(F)(F)F)cc2Cl)ccc1OC(C)=O` [compound 69], the “control of southern armyworm at six days on cotton” value (“control … at six days on cotton” for short) in test [4] was 30-100%. Moreover, the “control of tobacco budworm (TBW)” value in test [1] is listed as 50-100%. In test [2], the “control of southern armyworm after six days on sorghum” value is 30-100%.
For `COc1ccc(C=Nc2c(S(=O)(=O)C(F)(F)F)c(C#N)nn2-c2c(Cl)cc(C(F)(F)F)cc2Cl)cc1O` [compound 65], the “control of southern armyworm at thirteen days” value in test [4] is 30-100%. The “control of southern armyworm at thirteen days (sorghum)” value (from here on “control … (sorghum)”) in test [2] is 70-100%.
On to `CCOc1cc(C=Nc2c(S(=O)(=O)C(F)(F)F)c(C#N)nn2-c2c(Cl)cc(C(F)(F)F)cc2Cl)ccc1O` [compound 61], for which, in test [1], the “control of tobacco budworm (TBW)” value is given as 50-100%.
The same measure, in the same setting: in the case of `COc1cc(C=Nc2c(SC(F)(F)F)c(C#N)nn2-c2c(Cl)cc(C(F)(F)F)cc2Cl)cc(O)c1OC` [compound 59] it was 50-100%.
For `COc1cc(C=Nc2c(SC(F)(F)F)c(C#N)nn2-c2c(Cl)cc(C(F)(F)F)cc2Cl)cc([N+](=O)[O-])c1O` [compound 74], the “control of greenbug” value in test [3] was 30-100%.
As to `N#Cc1nn(-c2c(Cl)cc(C(F)(F)F)cc2Cl)c(N=Cc2cc(O)c(O)c(Br)c2)c1SC(F)(F)F` [compound 93], in test [3], the “control of greenbug” value is recorded as 30-100%.
`COc1ccccc1C=Nc1c(SC(F)(F)F)c(C#N)nn1-c1c(Cl)cc(C(F)(F)F)cc1Cl` [compound 113]: the “control … at six days on cotton” value in test [4] was 30-100%.
In the case of `N#Cc1nn(-c2c(Cl)cc(C(F)(F)F)cc2Cl)c(N=Cc2ccc(O)c(Br)c2)c1SC(F)(F)F` [compound 100], the “control of southern armyworm after six days on sorghum” value in test [2] is 30-100%.
On to `CSc1c(C#N)nn(-c2c(Cl)cc(C(F)(F)F)cc2Cl)c1N=Cc1ccc(O)cc1` [compound 111], for which, in test [5], the “control of cotton aphid after six days on cotton” value (shortened to “control of cotton aphid”) is 30-100%. Moreover, the “control of greenbug” value in test [3] is given as 30-100%.
On to `COc1cc(C=Nc2c(SC(F)(F)F)c(C#N)nn2-c2ncc(C(F)(F)F)cc2Cl)ccc1O` [compound 87], for which, in test [3], the “control of greenbug” value is listed as 30-100%.
For the compound `N#Cc1nn(-c2c(Cl)cc(C(F)(F)F)cc2Cl)c(N=Cc2cc(C(F)(F)F)cc(C(F)(F)F)c2)c1SC(F)(F)F` [compound 112], in test [5], the “control of cotton aphid” value is reported as 30-100%. Besides, the “control of greenbug” value in test [3] was 30-100%.
Take `CCCCCCCC(=O)Oc1ccc(C=Nc2c(SC(F)(F)F)c(C#N)nn2-c2c(Cl)cc(C(F)(F)F)cc2Cl)cc1OC` [compound 121]: the “control of southern armyworm after six days on sorghum” value in test [2] was 30-100%.
As for `COc1ccc(C=Nc2c(SC(F)(F)Cl)c(C#N)nn2-c2c(Cl)cc(C(F)(F)F)cc2Cl)cc1O` [compound 81], in test [1], the “control of tobacco budworm (TBW)” value is 50-100%.
On the same count and under the same terms, in the case of `Cc1cc(C=Nc2c(SC(F)(F)Cl)c(C#N)nn2-c2c(Cl)cc(C(F)(F)F)cc2Cl)cc(C)c1O` [compound 80] it was 50-100%.
Turning to `N#Cc1nn(-c2c(Cl)cc(C(F)(F)F)cc2Cl)c(N=Cc2ncc[nH]2)c1SC(F)(F)F` [compound 115], the “control of southern armyworm after six days on sorghum” value in test [2] was 30-100%.
Regarding `COc1cc(C=Nc2c(SC(F)(F)F)c(C#N)nn2-c2c(Cl)cc(C(F)(F)F)cc2Cl)cc(Br)c1O` [compound 42], the “control of tobacco budworm (TBW)” value in test [1] is 50-100%.
As to `N#Cc1nn(-c2c(Cl)cc(C(F)(F)F)cc2Cl)c(N=Cc2ccc(O)cc2)c1SC(F)(F)F` [compound 4, 1-(2,6-dichloro-4-trifluoromethylphenyl]-3-cyano-4-trifluoromethylsulfenyl-5-[(4-hydroxyphenyl]methylideneimino]pyrazole], the “control of greenbug” value in test [3] was 30-100%.
Turning to `COc1cc(C=Nc2c(SC(F)(F)F)c(C#N)nn2-c2c(Cl)cc(C(F)(F)F)cc2Cl)cc(OC)c1O` [compound 13, 1-(2,6-dichloro-4-trifluoromethylphenyl)-3-cyano-4-trifluoromethylsulfenyl-5-[(3,5-dimethoxy-4-hydroxyphenyl)methylideneimino]pyrazole], the “control of cotton aphid” value in test [5] was 30-100%. In addition, in test [1], the “control of tobacco budworm (TBW)” value was 50-100%.
`COc1cc(C=Nc2c(SC)c(C#N)nn2-c2c(Cl)cc(C(F)(F)F)cc2Cl)ccc1O` [compound 110]: in test [5], the “control of cotton aphid” value is recorded as 30-100%. Besides, the “control of southern armyworm at thirteen days” value in test [4] is given as 30-100%. For the same compound, the “control of greenbug” value in test [3] is on record as 30-100%. In addition, the “control … (sorghum)” value in test [2] is reported as 70-100%.
Turning to `N#Cc1nn(-c2c(Cl)cc(C(F)(F)F)cc2Cl)c(N=Cc2cc[n+]([O-])cc2)c1S(=O)(=O)C(F)(F)F` [compound 68], the “control of southern armyworm at thirteen days” value in test [4] is 30-100%.
On to `Cc1cc(C=Nc2c(S(=O)(=O)C(F)(F)F)c(C#N)nn2-c2c(Cl)cc(C(F)(F)F)cc2Cl)ccc1O` [compound 66], for which the “control … (sorghum)” value in test [2] is recorded as 70-100%.
As to `CC(C)(C)c1cc(C=Nc2c(SC(F)(F)F)c(C#N)nn2-c2c(Cl)cc(C(F)(F)F)cc2Cl)cc(C(C)(C)C)c1O` [compound 64], the “control of southern armyworm at thirteen days” value in test [4] was 30-100%.
Consider `COc1cccc(C=Nc2c(SC(F)(F)F)c(C#N)nn2-c2c(Cl)cc(C(F)(F)F)cc2Cl)c1O` [compound 50], for which the “control of tobacco budworm (TBW)” value in test [1] is given as 50-100%.
With `CCN(CC)c1ccc(C=Nc2c(SC(F)(F)F)c(C#N)nn2-c2c(Cl)cc(C(F)(F)F)cc2Cl)c(O)c1` [compound 117], in test [2], the “control … (sorghum)” value was 70-100%.
On to `N#Cc1nn(-c2c(Cl)cc(C(F)(F)F)cc2Cl)c(N=Cc2ccco2)c1SC(F)(F)F` [compound 20], for which, in test [3], the “control of greenbug” value is 30-100%. Moreover, the “control of tobacco budworm after six days on sorghum” value in test [6] is given as 100%.
Regarding `COc1cc(C=Nc2c(SC(F)(F)F)c(C#N)nn2-c2c(Cl)cc(C(F)(F)F)cc2Cl)ccc1OCc1ccccc1` [compound 120], in test [4], the “control … at six days on cotton” value was 30-100%.
